Test results reported in patent US20240150321A1, “PYRAZOLYLSULFONAMIDE COMPOUNDS AND THEIR USE IN THERAPY” (HOTSPOT THERAPEUTICS, INC., priority 2022, published 2024).
Read-outs that look alike come from different tables or passages of the source.

Experiments:
[1] = test system: NF-kB reporter in Jurkat cells; assay: NF-kB reporter assay in Jurkat cells stimulated with aCD3/aCD28/PMA; type: cell-based; conditions: Homo sapiens, read-out: NF-kB Reporter Assay IC50
Summary of the method: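 Luminescence (One-Glo) from the NF-kB reporter yielded IC50 values. Stimulation lasted 4 h at 37° C with aCD3, aCD28 and PMA (final 5, 5 and 0.03 […]), after 1 h compound pre-exposure of 25,000 Jurkat cells per well in serum-free RPMI.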

[2] = target: Avi-tagged FL MALT-1 (Homo sapiens (Human), UniProt Q9UDY8); assay: MALT-1 Fluorogenic Peptide Cleavage Assay (MALT1 inhibition assay); type: biochemical; conditions: Ac-LRSR-AMC peptide substrate, 30 min pre-incubation, 90 min reaction at room temperature
Summary of the method: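 Cleavage of Ac-LRSR-AMC, read as fluorescence at 342/441 nm after 90 min at room temperature, with substrate working stocks of 50 μM (Km) or 280 μM (10×Km). Enzyme, Avi-tagged full-length MALT-1 (40 nM stock), was first pre-incubated 30 min with compound in citrate/HEPES pH 6.89 buffer with TCEP, EDTA, CHAPS and 2% DMSO; IC50 fitted from normalised % inhibition.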

[3] = Jurkat cells, 1 hr compound pre-incubation, aCD3/aCD28/PMA stimulation 4 hr, One-Glo readout

Sequence of Avi-tagged FL MALT-1 (Q9UDY8 whole entry): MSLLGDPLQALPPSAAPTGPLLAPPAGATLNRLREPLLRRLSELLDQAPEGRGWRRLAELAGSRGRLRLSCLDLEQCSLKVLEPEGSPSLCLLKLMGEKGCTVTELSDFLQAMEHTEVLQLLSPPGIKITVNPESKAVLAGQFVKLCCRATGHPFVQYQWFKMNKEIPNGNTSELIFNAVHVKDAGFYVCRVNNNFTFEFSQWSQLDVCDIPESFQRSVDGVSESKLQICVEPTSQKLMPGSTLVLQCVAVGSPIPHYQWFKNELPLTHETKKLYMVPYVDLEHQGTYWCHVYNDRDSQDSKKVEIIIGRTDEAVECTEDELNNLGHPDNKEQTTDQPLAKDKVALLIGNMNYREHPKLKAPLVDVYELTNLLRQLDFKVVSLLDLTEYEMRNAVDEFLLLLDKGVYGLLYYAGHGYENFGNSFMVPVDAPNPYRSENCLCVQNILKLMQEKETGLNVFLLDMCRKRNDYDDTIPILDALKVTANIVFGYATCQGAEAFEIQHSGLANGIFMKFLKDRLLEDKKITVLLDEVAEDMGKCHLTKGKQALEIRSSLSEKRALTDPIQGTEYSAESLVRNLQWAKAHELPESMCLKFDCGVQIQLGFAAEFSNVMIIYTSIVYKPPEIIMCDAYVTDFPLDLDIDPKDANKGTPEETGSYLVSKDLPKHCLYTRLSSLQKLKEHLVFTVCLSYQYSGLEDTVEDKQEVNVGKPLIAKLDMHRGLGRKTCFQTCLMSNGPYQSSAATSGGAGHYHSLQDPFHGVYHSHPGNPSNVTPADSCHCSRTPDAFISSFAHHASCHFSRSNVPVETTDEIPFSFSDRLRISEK

COC[C@@H](OC)c1ccnc(-n2cc(S(=O)(=O)Nc3cccc4cnn(C)c34)cn2)c1 [Compound I-341]
IC50 [1, 3]: < 400 nM
IC50 [2]: > 2500 nM

COc1ccc2cnn(C)c2c1NS(=O)(=O)c1cnn(-c2cc(C3CC3)ccn2)c1 [Compound I-57, 1-(4-Cyclopropylpyridin-2-yl)-N-(6-Methoxy-1-Methyl-1H-Indazol-7-yl)-1H-Pyrazole-4-Sulfonamide]
IC50 [1, 3]: < 400 nM
IC50 [2]: ≤ 400 nM

COc1ccc2[nH]nc(C)c2c1NS(=O)(=O)c1cnn(-c2cc(C(F)(F)F)ccn2)c1 [Compound I-81, N-(5-Methoxy-3-Methyl-1H-Indazol-4-yl)-1-(4-(Trifluoromethyl)Pyridin-2-yl)-1H-Pyrazole-4-Sulfonamide]
IC50 [1, 3]: < 400 nM
IC50 [2]: ≤ 400 nM

CCc1ccc2[nH]nc(C)c2c1NS(=O)(=O)c1cnn(-c2ccnc(C(F)(F)F)c2)c1 [Compound I-39, N-(5-Ethyl-3-Methyl-1H-Indazol-4-yl)-1-(2-(Trifluoromethyl) Pyridin-4-yl)-1H-Pyrazole-4-Sulfonamide]
IC50 [1, 3]: < 400 nM
IC50 [2]: ≤ 400 nM

COc1ccc2cnn(C)c2c1NS(=O)(=O)c1cnn(-c2cc(C(F)(F)F)nn2C)c1 [Compound I-242]
IC50 [1, 3]: 1000 to 2500 nM
IC50 [2]: > 2500 nM

COc1ccc2cnn(C)c2c1NS(=O)(=O)c1cnn(-c2cc(C(C)(C)OC)ccn2)c1 [Compound I-258, N-(6-methoxy-1-methyl-1H-indazol-7-yl)-1-(4-(2-methoxypropan-2-yl)pyridin-2-yl)-1H-pyrazole-4-sulfonamide]
IC50 [1, 3]: < 400 nM
IC50 [2]: ≤ 400 nM

[2H]C([2H])([2H])n1ncc2ccc(OC)c(N(C)S(=O)(=O)c3cnn(-c4cc(C(F)(F)F)ccn4)c3)c21 [Compound I-336, N-(6-methoxy-1-(methyl-d3)-1H-indazol-7-yl)-N-methyl-1-(4-(trifluoromethyl)pyridin-2-yl)-1H-pyrazole-4-sulfonamide]
IC50 [1, 3]: < 400 nM
IC50 [2]: ≤ 400 nM

Cn1ncc2ccc(C3CC3)c(NS(=O)(=O)c3cnn(-c4ccc(C(F)(F)F)cn4)c3)c21 [Compound I-20, N-(6-Cyclopropyl-1-Methyl-1H-Indazol-7-yl)-1-(5-(Trifluoromethyl)Pyridin-2-yl)-1H-Pyrazole-4-Sulfonamide]
IC50 [1, 3]: 1000 to 2500 nM
IC50 [2]: 1000 to 2500 nM

C=CC(F)c1ccnc(-n2cc(S(=O)(=O)Nc3c(OC)ccc4cnn(C)c34)cn2)c1 (stereo not shown) [Compound I-343, 1-(4-(1-fluoroallyl)pyridin-2-yl)-N-(6-methoxy-1-methyl-1H-indazol-7-yl)-1H-pyrazole-4-sulfonamide]
IC50 [1, 3]: 1000 to 2500 nM
IC50 [2]: ≤ 400 nM

[2H]C([2H])([2H])n1ncc2ccc(OC)c(NS(=O)(=O)c3cnn(-c4cc(C5CC5)ccn4)c3)c21 [Compound I-97, 1-(4-Cyclopropylpyridin-2-yl)-N-(6-Methoxy-1-(Methyl-D3)-1H-Indazol-7-yl)-1H-Pyrazole-4-Sulfonamide]
IC50 [1, 3]: < 400 nM
IC50 [2]: ≤ 400 nM

COc1ccc2cnn(C)c2c1NS(=O)(=O)c1cnn(-c2cc(N3CCC3)ccn2)c1 [Compound I-373, 1-(4-(azetidin-1-yl)pyridin-2-yl)-N-(6-methoxy-1-methyl-1H-indazol-7-yl)-1H-pyrazole-4-sulfonamide]
IC50 ([1]; Jurkat): < 400 nM
IC50 [2]: ≤ 400 nM

CN(C)c1ccnc(-n2cc(S(=O)(=O)Nc3cccc4cnn(C)c34)cn2)c1 [Compound I-437, 1-[4-(dimethylamino)pyridin-2-yl]-N-(1-methylindazol-7-yl)pyrazole-4-sulfonamide]
IC50 [1, 3]: < 400 nM
IC50 [2]: > 2500 nM

Cn1ncc2cccc(NS(=O)(=O)c3cnn(-c4cc(C5(O)CCCCC5)ccn4)c3)c21 [Compound I-256, 1-[4-(1-hydroxycyclohexyl)pyridin-2-yl]-N-(1-methylindazol-7-yl)pyrazole-4-sulfonamide]
IC50 [1, 3]: < 400 nM
IC50 [2]: > 2500 nM

C=Cn1cc2cccc(NS(=O)(=O)c3cnn(-c4cc(C(F)(F)F)ccn4)c3)c2n1 [Compound I-357, 1-(4-(trifluoromethyl)pyridin-2-yl)-N-(2-vinyl-2H-indazol-7-yl)-1H-pyrazole-4-sulfonamide]
IC50 [1, 3]: > 2500 nM
IC50 [2]: > 2500 nM
